Assay results from US20230304097A1, “PREDICTING CANCER RELAPSE AND TREATMENT OF CANCER DISEASES” (priority 2020, published 2023).
Entries after “also recorded” stand apart in the source; their conditions may differ.

Experiments:
[1] = system: GTS cells; experiment: Drug treatment and proliferation assay (Resazurin/Alamar blue), recurrent tumor cells; assay type: cell-based, mouse
Protocol: Tumor cells (GTML, GTS and preGTS) were isolated as previously described from tumor bearing mice (Cancer Cell 2012, 21: 601-613) and cultured as neurospheres in serum-free conditions with Neurobasal (NB) media, additional B27 supplement, 100 units Penicillin and 0.1 mg/ml Streptomycin, 2 mM L-glutamine, 1:500 Antibiotic-Antimycotic, 20 ng/ml EGF and 20 ng/ml FGF-2. Human MB002 primary cell culture was obtained from Dr. Yoon Jae-Cho and cultured in serum-free conditions, 1:1 of Neurobasal Media (-vitamin A) and DMEM/F12 with Sodium Pyruvate, NEAA, HEPES, GlutaMAX, 100 units Penicillin and 0.1 mg/ml Streptomycin, B27 supplement, 20 ng/ml EGF and 20 ng/ml FGF-2, 1X LIF and 1X Heparin as previously described Clin Cancer Res 2014, 20: 912-925. Stable doxycycline-inducible SOX9wt and SOX9CPD mutant cell lines were generated as described (EMBO J 2016, 35: 2192-2212), lentiviruses were first packed in HEK293T cells by the specified pTRIPZ lentivector with the packaging plasmids, psPAX2 and pMD2.G. Supernatants containing viral particles (48 - 96 hours post transfection) were used to infect the target cells in the presence of freshly added hexadimethrine bromide ([…]). Seventy-two hours post-transfection, the cells were selected and maintained in appropriate culture medium containing puromycin (0.125 - 0.5 µg/mL).
To assess cell proliferation, 10 000 cells were plated in triplicates in 96-well plate. Proliferation was measured every 24 h for five days using Resazurin colorimetric assay. […] ThioTEPA was dissolved in DMSO and added similarly to a final concentration of 10-100 µM. Doxorubicin was dissolved in H2O and added to a final concentration of 100-120 nM. Spheres from pre-GT20 cells were treated with Cisplatin at a final concentration of 10 µM. Number of SOX9-positive cells per spheres was counted in 10 spheres in treated (Cisplatin) and untreated (DMSO) conditions. Statistical significance was calculated using a unpaired non-parametric Mann-Whitney test.

[2] = system: GTML2 and GTML3 cerebellar allografts; experiment: Survival of Nude mice allografted with GTML cell lines after dox diet (minimal residual disease); assay type: in vivo, mouse; conditions: 7 days of dox treatment
Protocol: Injections of tumor cells into mouse brains were performed as thoroughly described elsewhere (Cancer Cell 2016, 29: 311-323; Cancer Cell 2012, 21: 601-613) and as follows. For allograft and in vivo transplantation studies, adult Nude mice were anesthetized and cerebellar allografts generated by injection of 100,000 cells into the cerebellum. Mice were monitored until phenotypic presentation of a brain tumor, at which point they were euthanized. At sacrifice, whole brains were excised and biopsies taken for experimental procedures. PDX models used included BT084 (metastatic SHH MB established in Dr. Till Milde’s lab, Heidelberg, Germany), Med-211FH, Med-411FH (metastatic Group 3 MBs established in Dr. Jim Olson’s lab, Seattle, USA) and ICb-1572MB (metastatic Group 3 MB established in Dr. Xiaonan Li’s lab, Houston, USA) all obtained from Dr. Robert Wechsler-Reya’s lab and used as described elsewhere (Cancer Cell 2016, 29: 311-323). Orthotopic PDX growth was studied in brain and spinal cord in NSG mice that were maintained in the animal facilities at Sanford Burnham Prebys Medical Discovery Institute (SBP) and at the Sanford Consortium for Regenerative Medicine. […]
All animal experiments were conducted once. Animal survival was graphically shown as a Kaplan Meier curve, made and assessed using GraphPad Prism 7 software. The p-value for survival curves is calculated using a LogRank test.

[3] = system: GTML cells; experiment: Drug treatment and proliferation assay (Resazurin/Alamar blue), primary tumor cells; assay type: cell-based, mouse
Protocol: Tumor cells (GTML, GTS and preGTS) were isolated as previously described from tumor bearing mice (Cancer Cell 2012, 21: 601-613) and cultured as neurospheres in serum-free conditions with Neurobasal (NB) media, additional B27 supplement, 100 units Penicillin and 0.1 mg/ml Streptomycin, 2 mM L-glutamine, 1:500 Antibiotic-Antimycotic, 20 ng/ml EGF and 20 ng/ml FGF-2. Human MB002 primary cell culture was obtained from Dr. Yoon Jae-Cho and cultured in serum-free conditions, 1:1 of Neurobasal Media (-vitamin A) and DMEM/F12 with Sodium Pyruvate, NEAA, HEPES, GlutaMAX, 100 units Penicillin and 0.1 mg/ml Streptomycin, B27 supplement, 20 ng/ml EGF and 20 ng/ml FGF-2, 1X LIF and 1X Heparin as previously described Clin Cancer Res 2014, 20: 912-925. […]
To assess cell proliferation, 10 000 cells were plated in triplicates in 96-well plate. Proliferation was measured every 24 h for five days using Resazurin colorimetric assay. […] Number of SOX9-positive cells per spheres was counted in 10 spheres in treated (Cisplatin) and untreated (DMSO) conditions. Statistical significance was calculated using a unpaired non-parametric Mann-Whitney test.

[4] = system: GTML-pSOX9-GFP cells; experiment: FACS quantification of GFP (SOX9)-positive cells after cisplatin treatment; assay type: cell-based, mouse; conditions: 24 h treatment
Protocol: Tumor burdened GTML;SOX9-eGFP mice were sacrificed and tumors dissociated, cells cultured as we described above. Cells were harvested, accutased and filtered with 30 µm cell strainer, then sorted for GFP-positive (SOX9) cells (488_FITC-A) and GFP-negative cell population. For cisplatin treatment experiment, cells were treated with cisplatin 24 h before cell sorting. The BD FACSMelody was used for sorting and quantifying in this experiment. MB002-pSOX9-GFP cells were dissociated using accutase and sorted for GFP expression (488_FITC-A). The BD FACSarialll was used for this experiment and it was analyzed using BD FACSDiVa version 8.0.

[5] = system: pre-GT20 cells; experiment: Cisplatin treatment of tumor sphere cultures, SOX9 staining and cell counts; assay type: cell-based, mouse; conditions: pre-GTS tumor spheres, 10 µM, 72 h in culture
Protocol: Brains were fixed in 4% PFA and embedded in paraffin block. preGT20 sphere cultures were fixed in 4 % PFA for a minimum of 12 hours at 4° C. and then embedded in HistoGel followed by paraffin embedding. 6-7 µm sections of paraffin-embedded tissue were used for all staining. The complete protocol for the IHC was described previously (Genes & development 2010, 24: 1059-1072).
To assess cell proliferation, 10 000 cells were plated in triplicates in 96-well plate. Proliferation was measured every 24 h for five days using Resazurin colorimetric assay. The MGMT inhibitor Lomeguatrib was dissolved in DMSO and added to cells 24 h post cell plating to a final concentration of 20 µM. ThioTEPA was dissolved in DMSO and added similarly to a final concentration of 10-100 µM. Doxorubicin was dissolved in H2O and added to a final concentration of 100-120 nM. Spheres from pre-GT20 cells were treated with Cisplatin at a final concentration of 10 µM. Number of SOX9-positive cells per spheres was counted in 10 spheres in treated (Cisplatin) and untreated (DMSO) conditions. Statistical significance was calculated using a unpaired non-parametric Mann-Whitney test.

[6] = in children and in adults; cited from earlier work

SMILES: COc1cc2ncnc(Nc3ccc(F)c(Cl)c3)c2cc1OCCCN1CCOCC1 [Gefitinib]
- specificity for targeting forebrain GTS cells ([1]; data not shown): not specific for targeting forebrain GTS cells

SMILES: C[C@H]1c2cccc(O)c2C(=O)C2=C(O)[C@]3(O)C(=O)C(C(N)=O)=C(O)[C@@H](N(C)C)[C@@H]3[C@@H](O)[C@@H]21 [dox, doxycycline hyclate]
- overall survival, GTML2 allograft [2]: 16.5 weeks
- overall survival, GTML3 allograft [2]: 9 weeks

SMILES: COc1cccc2c1C(=O)c1c(O)c3c(c(O)c1C2=O)C[C@@](O)(C(=O)CO)C[C@@H]3O[C@H]1C[C@H](N)[C@H](O)[C@H](C)O1 [doxorubicin]
- viable fGTS (forebrain recurrence) cells ([1]; 200 nM, 72 h): completely depleted
- viable hGTS (hindbrain recurrence) cells ([1]; 200 nM, 72 h): nearly half of the cells were still viable
- viable GTML cells ([3]; 200 nM, 72 h): nearly half of the cells were still viable

SMILES: Nc1nc(OCc2cc(Br)cs2)c2[nH]cnc2n1 [Lomeguatrib]
- proliferation of GTS cells, combination with ThioTEPA ([1]; 10 µM Lomeguatrib added to ThioTEPA (10, 100 µM), 72 h): decreased proliferation of GTS tumor cells even further; also recorded: significantly decreases proliferation
- proliferation of GTS cells ([1]; 20 µM, 24, 48 and 72 h, GT20 and GT21 cell lines): significantly decreased proliferation
- proliferation of GTML cells ([3]; 20 µM, 24, 48 and 72 h, GTML3 and GTML13 cell lines): did not show any efficacy

SMILES: N.N.[Cl][Pt][Cl] [cisplatin, Cisplatin]
- number of SOX9-positive cells compared to DMSO control ([4]; FACS of GFP-positive cells): increases the number of SOX9-positive cells
- SOX9-positive cells ([4]; GFP-positive cells by FACS, increase from 2.4% (DMSO control)): 8.6%
- cell survival and apoptotic cell death [5]: decreased cell survival and massive apoptotic cell death
- number of SOX9-positive cells surviving the treatment ([5]; vs DMSO): significant upregulation and increase in the number of SOX9-positive cells

SMILES: CC(C)[C@H](N)C(=O)OCC(CO)OCn1cnc2c(=O)nc(N)[nH]c21 (stereo partly drawn) [ValGCV, valganciclovir]
- blood brain barrier penetration [6]: penetrates the BBB well
- concentration in the cerebrospinal fluid (CSF) [6]: high concentrations
